Results as given in US20250199015A1, “CYCLIN-DEPENDENT KINASE 2 INHIBITORS FOR MEDICAL TREATMENT” (INCYCLIX BIO, LLC, priority 2022, published 2025).
pIC50: −log10 of the molar value. Where “and” joins values, the source holds several entries; their conditions need not be identical. Identical values can stand only once. Counter-ions that a name gives are not always drawn. Marks after values point to notes of the source that are not given here.

Tests used:
[1] = Dynamic Vapor Sorption (DVS); assay type: physicochemical; details: for DVS uptake, first sorption cycle / DVS uptake, second sorption cycle: 25° C., to 90% RH
Protocol: Approximately 10-20 mg of sample was placed into a mesh vapor sorption balance pan and loaded into a DVS Advantage dynamic vapor sorption balance by Surface Measurement Systems. The sample was subjected to a ramping profile from 40-90% relative humidity (RH) at 10% increments, maintaining the sample at each step until a stable weight had been achieved (dm/dt 0.004%, minimum step length 30 minutes, maximum step length 500 minutes) at 25° C. After completion of the sorption cycle, the sample was dried using the same procedure to 0% RH and then a second sorption cycle back to 40% RH. Two cycles were performed. The weight change during the sorption/desorption cycles were plotted, allowing for the hygroscopic nature of the sample to be determined. XRPD analysis was then carried out on any solid retained.

[2] = 7-day indicative stability (XRPD, HPLC purity); assay type: physicochemical; details: for change in form after 7 days / purity change after 7 days: ambient
Protocol: The stability of HCl Pattern 1 was determined using the following procedure. HCl Pattern 1 (30 mg) was weighed into 3×2 mL glass vials. The three vials were then stored under the following conditions for 7-days: • Ambient temperature, humidity and light (open vial); • 40° C./75% RH (open vial); • 80° C. (closed vial).
After 7 days, each sample was analyzed by: XRPD to assess form changes and HPLC to determine the purity of the samples.
After 7 days at each storage condition, the solids were analyzed by XRPD to assess any changes in solid form and by HPLC to determine purity.

[3] = Thermodynamic solubility in pH 1, 4.5 and 6.8 buffers; assay type: physicochemical
Protocol: The thermodynamic solubility of HCl Pattern 1 was determined in duplicate according to the following procedure. HCl Pattern 1 (20 mg) was weighed into 6×2 mL glass vials. Then, 1000 μL of pH 1 hydrochloride, pH 4.5 acetate and pH 6.8 phosphate buffers were added to individual vials in 100 μL aliquots to give white slurries at each pH value. […] The pH was re-recorded and adjusted where necessary. The samples were isolated by centrifuge filtration. […] The concentrations of the saturated solutions were determined by HPLC.
Buffer systems were added in 250 μL aliquots up to a total volume of 1 mL. The pH of each slurry was recorded and adjustments were made to the pH 1 system. No initial adjustment was made to the pH 4.5 or 6.8 system. An aliquot of the slurry was analyzed by XRPD. […] The pH was checked and adjusted where required. The slurries were filtered by centrifugation. The solids were isolated and analyzed by XRPD. The solutions were analyzed by HPLC to determine concentration.

[4] = Solvate formation or form change in ethanol (thermal cycling); assay type: physicochemical; details: three days, 40° C./5° C.
Protocol: HCl Pattern 1 was stirred in ethanol to assess any solvation or form change in the solvent system. The following procedure was carried out. HCl Pattern 1 (20 mg) was suspended in 1 mL of ethanol. The suspension was thermally cycled for three days according to the following cycle: • Heat to 40° C. at a rate of 0.1° C./min; • Hold at 40° C. for one hour; • Cool to 5° C. at a rate of 0.1° C./min; • Hold at 5° C. for one hour.
After three days, observations were recorded, and solids were isolated by centrifugation. Wet solids were analyzed by XRPD.

[5] = system: caspase 3/7 in Hs68 cells; assay: CaspaseGlo-3/7 in normal fibroblasts; assay type: cell-based; details: 300 pM to 10 μM; 24, 48 or 72 hours
Protocol: The Hs68 Normal foreskin fibroblast cell line was grown in DMEM-high glucose/1× Glutamax/10% fetal bovine serum and was plated at 1,000 cells/well in Corning 96 well white wall/clear bottom tissue culture treated plates. […] Plates were removed from incubator at each specified timepoint and treated with CaspaseGlo-3/7 (Promega, Inc) following manufacturer specifications. Plates were then read on Biotech luminometer with 1 sec/well integration. Results were converted to Microsoft Excel and transferred to GraphPad Prism for Analysis (FIG. 5A-C).

[6] = system: caspase 3/7 in H526 cells; assay: CaspaseGlo-3/7 activation; assay type: cell-based, human
Protocol: (§1) Plates were removed from incubator and treated with CaspaseGlo-3/7 (Promega, Inc) following manufacturer specifications. Plates were then read on a Biotech luminometer with 1 sec/well integration. Results were converted to Microsoft Excel and transferred to GraphPad Prism for Analysis (FIG. 22D).
as §1, with “from the” for “from”, “incubator at each specified timepoint” for “incubator”, “on” for “on a”, “27A-C).” for “22D).”

[7] = Salt screen storage at 40° C./75% RH, XRPD form; assay type: physicochemical; details: after storage at 40° C./75% RH, scale up from ethyl acetate
Protocol: XRPD analysis was carried out on any isolated solids or gums as described in Example 10 below. The XRPD plate, and the isolated solids, were dried at 40° C. for ca. 24 hours and re-analyzed by XRPD. The XRPD plate was further dried at 40° C./75% RH for ca. 24 hours and XRPD analysis was repeated.
After three days, observations were recorded and solids were isolated by centrifugation. The wet solids were analyzed by XRPD. Solids were dried at 40° C. under vacuum for 72 hours and re-analyzed by XRPD. Solids were dried at 40° C./75% RH for 18 hours and re-analyzed by XRPD.

[8] = Disproportionation study in water; assay type: physicochemical
Protocol: A study disproportionation was carried out using the following procedure. […] The pH was recorded, and the suspension was stirred for ca. 24 hours at 25° C. After 24 hours the pH was recorded, and the slurry was filtered by centrifugation. The solids were isolated and analyzed by XRPD. The solution was isolated and analyzed by HPLC to determine concentration.

[9] = Hydration study in ethanol:water mixtures; assay type: physicochemical; details: 24 hours; for XRPD: solids from slurry
Protocol: A hydration study was carried out on the material according to the following procedure. […] Ethanol: water solutions (Table 77) were added in 250 μL aliquots to a total volume of 1 mL. The slurries were stirred at 25° C. for 24 hours. After 24 hours the slurries were filtered by centrifugation. The solids were isolated and analyzed by XRPD. The solution was isolated and analyzed by HPLC to determine concentration.

[10] = Thermodynamic solubility in pH 1, 4.5 and 6.8 buffers; assay type: physicochemical; details: for Solubility: 25° C., 24 hours
[11] = 7 days, 40° C./75% RH (open vial)
[12] = 7 days, ambient temperature, humidity and light (open vial)
[13] = pH 6.8 (Phosphate) buffer, 25° C., 24 hours
[14] = residual solids, pH 1 (HCl) buffer, 25° C., 24 hours

For `NS(=O)(=O)c1ccc(Nc2ncc3cc4n(c3n2)C2(CCCCC2)C(=O)NN4)cc1` [HCl Pattern 1], the “form post DVS by XRPD” value [1] was “no observable form change had occurred”, the “hygroscopicity (DVS)” value [1] was “moderately hygroscopic” and the “DVS uptake, first sorption cycle” value [1] was 5.15%. For the same molecule, the “DVS uptake, second sorption cycle” value [1] was 5.10%, the “HPLC Purity” value [2, 11] was 97.98 % w/w and the Observation [2, 11] was “White Solid”. The XRPD [2, 11] was “HCl Pattern 1”, the “HPLC Purity” value ([2]; 7 days, 80° C. (closed vial)) was 96.97 % w/w and the Observation ([2]; 7 days, 80° C. (closed vial)) was “White Solid”. For the same molecule, the XRPD ([2]; 7 days, 80° C. (closed vial)) was “HCl Pattern 1”, the “HPLC Purity” value [2, 12] was 98.02 % w/w and the Observation [2, 12] was “Yellow Solid”. For the same molecule, the XRPD [2, 12] was “HCl Pattern 1”, the “change in form after 7 days” value ([2]; 40° C./75% RH, 80° C.) was “no observable change in form” and the “purity change after 7 days” value ([2]; 40° C./75% RH, 80° C.) was “decrease in purity was noted for all samples”. For the same molecule, the Solubility ([3]; pH 1 (HCl) buffer, 25° C., 24 hours) was 2.7 µg/mL, the solubility at 24 h ([3]; pH 1 hydrochloride buffer, 25 °C, pH 1, simulated gastric fluid, thermodynamic from solid, pH 1 (HCl) buffer, 24 hours) was 3.8 µg/mL and the Solubility ([3]; pH 4.5 (Acetate) buffer, 25° C., 24 hours) was “<LOQ”. For the same molecule, the “residual solids by XRPD” value ([3]; pH 4.5, 25° C., 24 hours) was “formation of free base”, the Solubility [3, 13] was “<LOQ” and the “residual solids by XRPD” value ([3]; pH 6.8, 25° C., 24 hours) was “formation of free base”. The XRPD [3, 14] was 1 and the “form after thermal cycling in ethanol” value [4] was “produced HCl Pattern 2”.

In the case of `CN[C@@H]1C[C@H]2O[C@@](C)([C@@H]1OC)n1c3ccccc3c3c4c(c5c6ccccc6n2c5c31)C(=O)NC4` [staurosporine], the “caspase 3/7 activation” value [5] was “substantial increase”, the “caspase 3/7 activation” value ([6]; 24 hours) was “robust caspase 3/7 activation” and the pIC50 ([6]; Homo sapiens, NCI-H526, 72 hours) was 8.22.

For `NS(=O)(=O)c1ccc(Nc2ncc3cc4n(c3n2)C2(CCCCC2)C(=O)NN4)cc1.O=P(O)(O)O` [phosphate Pattern 7], the XRPD [7] was “Pattern 7*”, the “form post DVS by XRPD” value [1] was “no observable form change had occurred” and the “hygroscopicity (DVS)” value [1] was “moderately hygroscopic”. For the same molecule, the “DVS uptake, first sorption cycle” value [1] was 4.76%, the “DVS uptake, second sorption cycle” value [1] was 5.18% and the “DVS Moisture Uptake at 80% RH” value ([1]; first sorption cycle) was 4.76 wt. %. For the same molecule, the XRPD ([1]; post DVS) was “Phosphate Pattern 7*”, the “DVS Moisture Uptake at 80% RH” value ([1]; second sorption cycle) was 5.18 wt. % and the “HPLC Purity” value ([2]; 7 Day Stability, 40° C./75% RH) was 89.63 % area. For the same molecule, the “HPLC Purity” value ([2]; 7 Day Stability, 80° C.) was 98.08 % area, the “HPLC Purity” value ([2]; 7 Day Stability, Ambient, Light) was 97.90 % area and the “HPLC Purity” value [2, 11] was 89.63 % w/w. For the same molecule, the Observation [2, 11] was “Faint Pink Solid”, the XRPD [2, 11] was “Phosphate Pattern 7*” and the “HPLC Purity” value ([2]; 7 days, 80° C. (closed vial)) was 98.08 % w/w. The Observation ([2]; 7 days, 80° C. (closed vial)) was “White Solid”, the XRPD ([2]; 7 days, 80° C. (closed vial)) was “Phosphate Pattern 7*” and the “HPLC Purity” value [2, 12] was 97.87 % w/w. For the same molecule, the Observation [2, 12] was “Faint Yellow Solid”, the XRPD [2, 12] was “Phosphate Pattern 7*” and the “change in form after 7 days” value ([2]; 40° C./75% RH, 80° C.) was “no observable change in form”. The “purity change after 7 days” value ([2]; 40° C./75% RH, 80° C.) was “significant decrease in purity”, the XRPD ([3]; 24 h Solubility at 37° C., pH 4.5, residual solids) was “Free Base Pattern 1” and the XRPD ([3]; 24 h Solubility at 37° C., pH 6.8, residual solids) was “Free Base Pattern 1”. The “thermodynamic solubility in three buffer systems” value ([3]; pH 1, 4.5, 6.8) was “low aqueous solubility”, the “residual solids by XRPD” value ([3]; pH 1, 25° C., 24 hours) was “mixture of HCl Pattern 1 and free base” and the “24 h Solubility at 37° C., Concentration” value ([3]; pH 4.5) was 5.2 µg/mL. For the same molecule, the “residual solids by XRPD” value ([3]; pH 4.5, 25° C., 24 hours) was “dissociation to free base”, the “24 h Solubility at 37° C., Concentration” value ([3]; pH 6.8) was 4.2 µg/mL and the Solubility [3, 13] was 4.2 µg/mL. For the same molecule, the “residual solids by XRPD” value ([3]; pH 6.8, 25° C., 24 hours) was “dissociation to free base”, the XRPD [3, 14] was “HCl Pattern 1” and the XRPD ([3]; residual solids, pH 4.5 (Acetate) buffer, 25° C., 24 hours) was “Free base”. The XRPD ([3]; residual solids, pH 6.8 (Phosphate) buffer, 25° C., 24 hours) was “Free base”, the “form after stirring in water” value ([8]; 25° C., ca. 24 hours) was “indicative of disproportionation” and the XRPD ([8]; slurry at 25° C. in water, 24 hours) was “Free Base Pattern 10”. For the same molecule, the “form after stirring in ethanol:water mixtures” value ([9]; 25° C.) was “disproportionation of the salt to free base material”, the Solubility ([9]; Ethanol:Water (63.6:36.4 % v/v), Calc Aw 0.745, 25° C.) was 0.9878 mg/mL and the Solubility ([9]; Ethanol:Water (92.9:7.1 % v/v), Calc Aw 0.507, 25° C.) was 1.6648 mg/mL. The Solubility ([9]; Ethanol:Water (98.4:1.6 % v/v), Calc Aw 0.257, 25° C.) was 1.2170 mg/mL, the XRPD ([9]; Ethanol:Water (63.6:36.4), Aw 0.745, 25° C.) was “Free Base Pattern 2” and the XRPD ([9]; Ethanol:Water (92.9:7.1), Aw 0.507, 25° C.) was “Free Base Pattern 3”. The XRPD ([9]; Ethanol:Water (98.4:1.6), Aw 0.257, 25° C.) was “Free Base Pattern 3”, the XRPD ([10]; 24 h Solubility at 37° C., pH 1.2, residual solids) was “HCl Pattern 1” and the Solubility ([10]; pH 1 (HCl) buffer) was 3.8 µg/mL and 2.7 µg/mL. For the same molecule, the Solubility ([10]; pH 4.5 (Acetate) buffer) was 5.8 µg/mL and 5.2 µg/mL.
